US10821079B2, “PKC activators and combinations thereof” (Cognitive Research Enterprises, Inc., priority 2011, dated 2020)

How the values were obtained:
[1] = system: primary rat hippocampal neurons; test: Neuroprotection against ASPD induced toxicity, MTT, primary neurons; type: cell-based
Method: Viability of cells was measured by MTT assay. MTT (3-(4,5-Dimethylthiazol-2-yl)-2,5-diphenyltetrazolium bromide) is a tetrazolium salt that is cleaved to formazan by the succinate dehydrogenase, which is only active in viable cells. After solubilization of the formazan, the amount of dye can be quantified with a microplate reader at 570 nm along with a reference of 630 nm. For MTT assay, 5×104 primary rat hippocampal neurons from 18-day-old embryonic Sprague-Dawley rat brains were plated on each well of 24-well plates coated with poly-D-lysine. After treatment, the cells were washed with 1×PBS and were incubated with 200 μl of 1 mg/ml MTT solution (Sigma, USA) at 37° C. for 2 hr. Then the MTT-solution was removed and the cells were lysed with 200 μl isopropanol containing 0.04 M HCl and 160 mM NaOH for 10 min. Finally, the reading was done at 570 nm and 630 nm. All the samples were done in triplicates and the data was represented as the percentage of control.
All studies used 50 nM ASPDs. The viability of the cells were measured by the MTT assay.

[2] = biological target: T1, PKC-ε-RACK1 (Homo sapiens, UniProt Q02156); test: PKC-ε interaction with RACK1 (confocal colocalization, coimmunoprecipitation); type: cell-based; details: 0.27 nM
T1 construct: host or cells: SH-SY5Y neuroblastoma cells
T1 sequence (Q02156 whole entry): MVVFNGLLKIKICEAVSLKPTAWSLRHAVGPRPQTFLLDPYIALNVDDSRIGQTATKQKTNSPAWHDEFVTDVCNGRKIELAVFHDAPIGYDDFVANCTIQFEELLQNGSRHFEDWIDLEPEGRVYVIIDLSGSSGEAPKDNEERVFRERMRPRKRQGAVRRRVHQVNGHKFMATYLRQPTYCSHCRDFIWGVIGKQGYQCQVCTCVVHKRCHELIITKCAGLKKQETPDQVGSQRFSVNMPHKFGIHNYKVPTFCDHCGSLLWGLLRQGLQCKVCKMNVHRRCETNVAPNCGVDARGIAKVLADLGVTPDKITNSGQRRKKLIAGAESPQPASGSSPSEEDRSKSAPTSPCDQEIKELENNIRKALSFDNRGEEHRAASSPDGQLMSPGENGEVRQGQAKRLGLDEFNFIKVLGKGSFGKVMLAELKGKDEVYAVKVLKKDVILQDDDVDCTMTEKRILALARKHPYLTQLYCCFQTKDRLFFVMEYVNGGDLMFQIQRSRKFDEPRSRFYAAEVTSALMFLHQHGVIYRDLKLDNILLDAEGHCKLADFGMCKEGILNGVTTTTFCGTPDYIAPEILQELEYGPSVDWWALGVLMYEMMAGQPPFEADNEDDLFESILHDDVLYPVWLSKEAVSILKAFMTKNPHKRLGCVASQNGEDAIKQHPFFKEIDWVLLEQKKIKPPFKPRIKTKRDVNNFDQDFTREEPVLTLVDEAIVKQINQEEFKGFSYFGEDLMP
Method: Cells were grown in two chambered slides (Nunc, USA) at low density. For immunofluorescence staining, the cells were washed with PBS (pH 7.4) and fixed with 4% paraformaldehyde for 4 min. Following fixation, the cells were blocked and permeabilized with 5% serum and 0.3% Triton X 100 in 1×PBS for 30 min. The cells were washed three times with 1×PBS and incubated with primary antibodies for 1 hr at 1:100 dilution. The incubation slides were then washed again three times in 1×PBS and were incubated with the FITC anti-rabbit IgG and Rhodamine anti-mouse IgG for 1 hr at 1:400 dilution. The cells were further washed and treated with DAPI (4′,6-diamidino-2′-phenylindole, dihydrochloride) (Thermo Scientific, USA) to stain the nucleus. Finally, the slides were washed and mounted in Pro Long Gold antifade mounting solution (Invitrogen, USA) and were viewed under the LSM 710 Meta confocal microscope (Zeiss) at 350 nm, 490 nm, and 540 nm excitation and 470 nm, 525 nm, and 625 nm emission for DAPI, FITC, and Rhodamine respectively. Six individual fields at 63× oil lens magnification were analyzed for the mean fluorescence intensity (MFI) in each channel. The co-localization correlation generated by the ZEN software (Zeiss).
Coimmunoprecipitation was done following protocol described Besson et al. with slight modification. See Besson et al. (2002) J Biol Chem 277, 22073-22084. […] (DSP) for 30 min at room temperature to crosslink the intracellular proteins following the manufacturer's protocol. After crosslinking the proteins, the cells were lysed in the homogenizing buffer mentioned above. For immunoprecipitation, 500 μg of protein was incubated with 4 μg of appropriate antibody and 25 μl of Protein-A Sepharose beads (Invitrogen, USA) for 3 hr at 4° C. Immunoprecipitates were rinsed three times in the homogenizing buffer and were subjected to Western blot as described earlier.
Next, cells were prepared according to the coimmunoprecipitation methods discussed above.

[3] = system: rat hippocampal neurons; test: Differentiation of seven day old rat hippocampal neurons; type: cell-based; details: RA 10 μM, bryostatin 1 0.27 nM, DCPLA-ME 100 nM
Method: FIG. 27: PKC-ε specific activation induces maturation and differentiation in rat primary neurons. Seven day old culture of rat hippocampal neurons were treated with RA (10 μM), 0.27 nM bryostatin 1(Bry), RA+bryostatin 1(RA+Bry), DCPLA-ME (100 nM) or RA+DCPLA-ME for 48 h. FIG. 27A—Confocal micrographs showing rat hippocampal neurons stained for MAP-2 (green), synaptophysin (red), and DAPI (blue). FIG. 27B—Graphical representation of number of dendritic branches per neuron. PKCε activation by RA+bryostatin 1(RA+Bry), DCPLA-ME or RA+DCPLA-ME increase the dendritic branching by 2-fold. FIG. 27C—Mean fluorescence intensity for MAP-2 or synaptophysin calculated from eight random 225 μm2 of confocal images. Data are represented as mean±SE. * represents significance with respect to control (* p<0.05, ** p<0.005 and *** p<0.0005).
Dendritic branching was increased in the cells treated with RA and a PKC activator, as evidenced by the MAP-2 staining. Similarly, the synaptic vesicle pool increased was also seen by increased synaptophysin.
The effect of RA+bryostatin 1 on development of primary neurons was also investigated. Seven day old rat hippocampal neurons were treated with RA, bryostatin 1, RA+bryostatin 1, DCPLA-methyl ester (“DCPLA-ME”) or RA+DCPLA-ME for 48 hr. RA+bryostatin produced a greater increase of MAP2 and synaptophysin than RA or bryostatin alone (FIGS. 27A & C).

[4] = system: PKC-ε; test: PKC-ε level in primary neurons (immunofluorescence, Western Blot); type: cell-based, rat; details: ASPD-treated primary neurons, 100 nM DCPLA-ME
Method: Cells were harvested in homogenizing buffer containing 10 mM Tris-Cl (pH 7.4), 1 mM PMSF (phenylmethylsulfonyl fluoride), 1 mM EGTA, 1 mM EDTA, 50 mM NaF, and 20 μM leupeptin and were lysed by sonication. The homogenate was centrifuged at 100,000×g for 15 min at 4° C. to obtain the cytosolic fraction (supernatant) and membrane (pellet). The pellet was resuspended in the homogenizing buffer by sonication. Protein concentration was measured using the Coomassie Plus (Bradford) Protein Assay kit (Pierce, USA). Following quantification, 20 μg of protein from each sample was subjected to SDS-PAGE analysis in 4-20% gradient Tris-Glycine gel (Invitrogen, USA). The separated protein was then transferred to nitrocellulose membrane. The membrane was blocked with BSA at room temperature for 15 min and was incubated with primary antibody over night at 4° C. After the incubation, it was washed three times with TBS-T (Tris Buffered saline-Tween 20) and further incubated with alkaline phosphatase conjugated secondary antibody (Jackson Immunoresearch Laboratories, USA) at 1:10,000 dilution for 45 min. The membrane was finally washed three times with TBS-T and developed using the 1-step NBT-BCIP substrate (Pierce, USA). Western Blot was imaged in the ImageQuant RT-ECL (GE Life Sciences, Piscataway, N.J.) and densitometric quantification was performed using the IMAL software (Blanchette Rockefeller Neurosciences Institute, Morgantown, W. Va.). For translocation assays, PKC activation was represented as the percentage of total protein in the membrane (membrane/cytosol+membrane).
Cells were grown in two chambered slides (Nunc, USA) at low density. For immunofluorescence staining, the cells were washed with PBS (pH 7.4) and fixed with 4% paraformaldehyde for 4 min. Following fixation, the cells were blocked and permeabilized with 5% serum and 0.3% Triton X 100 in 1×PBS for 30 min. […] Six individual fields at 63× oil lens magnification were analyzed for the mean fluorescence intensity (MFI) in each channel. […]

Row | Structure (SMILES) | viability (Example 25) ([1]; 50 nM ASPDs alone (ASPD) or with the treatment named, 24 hr) | viability at 0.00027 µM ([1]; Rattus norvegicus, Hippocampal neuron, 20 h, read-out: viability restored in ASPD-treated primary neurons) [%] | PKC-ε-RACK1 interaction by RACK1 immunoprecipitation (in words) [2] | colocalization correlation R ([2]; 5 min) | colocalization correlation R ([2]; 15 min) | increase of dendritic branching ([3]; 48 h) [fold] | Fractal dimension (dendritic branching) ([3]; 48 hr) | PKC-ε protein level (Western Blot, in words) [4]
1 | CCC/C=C/C=C/C(=O)O[C@H]1/C(=C/C(=O)OC)C[C@H]2C[C@H]([C@@H](C)O)OC(=O)C[C@H](O)C[C@@H]3C[C@H](OC(C)=O)C(C)(C)C(O)(C[C@@H]4C/C(=C/C(=O)OC)C[C@H](/C=C/C(C)(C)[C@]1(O)O2)O4)O3 [Bryostatin-1] | 71.38%±2.34 | 73.2 ± 3.6 | increased significantly at 5, 15, and 30 min | 0.71 | 0.72 |  |  | 
2 | CCCCCC1CC1CC1CC1CCCCCCCC(=O)OC (centres unmarked) [DCPLA-ME, methyl 8-(2-((2-pentylcyclopropyl)methyl)cyclopropyl)octanoate] |  |  |  |  |  | 2 | 1.40±0.03 | restored the PKC-ε protein level to normal
